The target in the assay is T1, human ADRA2B receptor (Homo sapiens, UniProt P18089).
T1 construct: expressed in transfected cells
T1 sequence (P18089 1-450): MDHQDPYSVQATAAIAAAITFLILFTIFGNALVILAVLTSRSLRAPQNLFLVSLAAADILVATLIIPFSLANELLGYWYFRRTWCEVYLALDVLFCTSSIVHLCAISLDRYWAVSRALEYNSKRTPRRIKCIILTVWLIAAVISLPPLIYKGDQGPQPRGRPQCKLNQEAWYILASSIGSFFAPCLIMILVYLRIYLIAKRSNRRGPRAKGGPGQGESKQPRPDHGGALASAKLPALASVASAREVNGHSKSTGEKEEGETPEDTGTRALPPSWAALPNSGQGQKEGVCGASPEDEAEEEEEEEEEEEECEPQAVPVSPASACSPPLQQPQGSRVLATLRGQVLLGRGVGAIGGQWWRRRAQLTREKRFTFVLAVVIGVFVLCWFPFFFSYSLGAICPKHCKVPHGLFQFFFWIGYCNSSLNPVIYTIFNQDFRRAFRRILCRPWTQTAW
Kind of assay: GTPγS agonist assay, ADRA2B receptor. The format is biochemical. Particulars: read-out: GTPase - Human Alpha2B EC50. In a few lines: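 CHO-K1 membranes stably expressing human ADRA2B (5 μg protein) in 20 mM HEPES, 10 mM MgCl2, 200 mM NaCl with GDP, preincubated 10 min at room temperature with compound. Binding reaction 1 h at 37° C; bound label collected on GF/C filters, washed, read by scintillation counting.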

The values below come from patent US20260042769A1, “TRIARYL AGONISTS OF ALPHA-2 ADRENERGIC RECEPTORS” (ALCEPTOR THERAPEUTICS, INC., priority 2023, published 2026).

Each structure is given as a SMILES string.

The term EC50 denotes the concentration that produces a half-maximal response. Consider `COc1ccc(CC(c2c[nH]cn2)c2cccc(C)c2C)nn1` (stereo not drawn) [Compound 133, 3-[2-(4-imidazolyl)-2-(2,3-xylyl)ethyl]-6-methoxy-pyridazine], for which the half-maximal effective concentration (EC50) was in the range of 10 to 50 nM.

As for `Cc1cccc(C(Cc2cnco2)c2c[nH]cn2)c1C` (stereo not drawn) [Compound 134, 5-[2-(4-imidazolyl)-2-(2,3-xylyl)ethyl]-1,3-oxazole], the EC50 was less than 10 nM.

As to `Cc1cc(C[C@@H](c2c[nH]cn2)c2cccc(C)c2C)no1` [Compound 135, 3-[(R)-2-(4-imidazolyl)-2-(2,3-xylyl)ethyl]-5-methyl-isoxazole], the EC50 was more than 500 nM.

`Cc1cc(C[C@H](c2c[nH]cn2)c2cccc(C)c2C)no1` [Compound 136, 3-[(S)-2-(4-imidazolyl)-2-(2,3-xylyl)ethyl]-5-methyl-isoxazole]: the 50% effective concentration (EC50) was less than 10 nM.

Consider `Cc1cccc([C@@H](Cc2cccnn2)c2c[nH]cn2)c1F` [Compound 137, 3-[(R)-2-(2-fluoro-3-tolyl)-2-(4-imidazolyl)ethyl] pyridazine], for which the concentration giving a half-maximal response (EC50) lay within 50 to 500 nM.

Take `Cc1cccc([C@H](Cc2cccnn2)c2c[nH]cn2)c1F` [Compound 138, 3-[(S)-2-(2-fluoro-3-tolyl)-2-(4-imidazolyl)ethyl] pyridazine]: the EC50 is more than 500 nM.

For `COc1c(C)cccc1C(Cc1ccnc(C)n1)c1c[nH]cn1` (stereo not drawn) [Compound 148, 4-[2-(4-imidazolyl)-2-(2-methoxy-3-tolyl)ethyl]-2-methylpyrimidine], the EC50 lay within 50 to 500 nM.

For the compound `COc1cccc(C(Cc2ccnc(C)n2)c2c[nH]cn2)c1C` (stereo not drawn) [Compound 149, 4-[2-(4-imidazolyl)-2-(3-methoxy-2-tolyl)ethyl]-2-methylpyrimidine], the 50% effective concentration (EC50) fell in the range of 10 to 50 nM.

With `Cc1cccc([C@H](Cc2ccnc(CF)n2)c2c[nH]cn2)c1C` [Compound 152, 4-[(S)-2-(4-imidazolyl)-2-(2,3-xylyl)ethyl]-2-(fluoromethyl) pyrimidine], the EC50 fell in the range of 50 to 500 nM.

For the compound `COc1nccc(CC(c2ccc(Cl)cc2)c2c[nH]cn2)n1` (stereo not drawn) [Compound 159, 4-[2-(p-chlorophenyl)-2-(4-imidazolyl)ethyl]-2-methoxypyrimidine], the EC50 lay in the range of 50 to 500 nM.

`COc1c(Cl)cccc1C(Cc1cccnn1)c1c[nH]cn1` (stereo not drawn) [Compound 160, 3-[2-(3-chloro-2-methoxyphenyl)-2-(4-imidazolyl)ethyl] pyridazine]: the 50% effective concentration (EC50) is more than 500 nM.

Consider `Cc1nccc(CC(c2c[nH]cn2)c2cccc3c2ccn3C)n1` (stereo not drawn) [Compound 164, 4-[2-(4-imidazolyl)-2 (1-methyl-4-indolyl)ethyl]-2-methylpyrimidine], for which the EC50 was less than 10 nM.

As to `FC(F)(F)c1ccccc1C(Cc1cccnn1)c1c[nH]cn1` (stereo not drawn) [Compound 166, 3-{2-(4-imidazolyl)-2-[o-(trifluoromethyl)phenyl]ethyl}pyridazine], the EC50 is more than 500 nM.

Regarding `Clc1cccc(C(Cc2cccnn2)c2c[nH]cn2)c1Cl` (stereo not drawn) [Compound 170, 3-[2-(2,3-dichlorophenyl)-2-(4-imidazolyl)ethyl] pyridazine], the concentration giving a half-maximal response (EC50) fell in the range of 50 to 500 nM.

Turning to `COc1nccc(CC(c2c[nH]cn2)c2cccc(C#N)c2C)n1` (stereo not drawn) [Compound 171, 6-[1-(4-imidazolyl)-2-(2-methoxy-4-pyrimidinyl)ethyl]-2-toluonitrile], the EC50 lay within 50 to 500 nM.

With `COc1nccc(CC(c2c[nH]cn2)c2cccc3cn[nH]c23)n1` (stereo not drawn) [Compound 172, 7-[1-(4-imidazolyl)-2-(2-methoxy-4-pyrimidinyl)ethyl]-1H-indazole], the EC50 is more than 500 nM.

As for `Fc1ccc(C(Cc2cccnn2)c2c[nH]cn2)c(F)c1Cl` (stereo not drawn) [Compound 173, 3-[2-(3-chloro-2,4-difluorophenyl)-2-(4-imidazolyl)ethyl] pyridazine], the EC50 is more than 500 nM.

`COc1nccc(CC(c2c[nH]cn2)c2cccc3ncoc23)n1` (stereo not drawn) [Compound 174, 7-[1-(4-imidazolyl)-2-(2-methoxy-4-pyrimidinyl)ethyl]-1,3-benzoxazole]: the EC50 lay within 50 to 500 nM.

In the case of `COc1nccc(CC(c2c[nH]cn2)c2cccc(C#N)c2F)n1` (stereo not drawn) [Compound 177, 2-fluoro-3-[1-(4-imidazolyl)-2-(2-methoxy-4-pyrimidinyl)ethyl] benzonitrile], the EC50 was in the range of 50 to 500 nM.

Regarding `COc1nccc(CC(c2c[nH]cn2)c2cccc(OC)c2C)n1` (stereo not drawn) [Compound 178, 4-[2-(4-imidazolyl)-2-(3-methoxy-2-tolyl)ethyl]-2-methoxypyrimidine], the EC50 is 10 to 50 nM.

For `COc1nccc(CC(c2c[nH]cn2)c2cc(Cl)ccc2C)n1` (stereo not drawn) [Compound 184, 4-[2-(5-chloro-2-tolyl)-2-(4-imidazolyl)ethyl]-2-methoxypyrimidine], the 50% effective concentration (EC50) is 50 to 500 nM.

`COc1nccc(CC(c2c[nH]cn2)c2cccc(Cl)c2C)n1` (stereo not drawn) [Compound 185, 4-[2-(3-chloro-2-tolyl)-2-(4-imidazolyl)ethyl]-2-methoxypyrimidine]: the EC50 is less than 10 nM.

As for `COc1nccc(CC(c2c[nH]cn2)c2cccc(C)c2Cl)n1` (stereo not drawn) [Compound 186, 4-[2-(2-chloro-3-tolyl)-2-(4-imidazolyl)ethyl]-2-methoxypyrimidine], the EC50 was less than 10 nM.

`COc1nccc(CC(c2ccc(C(F)F)cc2)c2c[nH]cn2)n1` (stereo not drawn) [Compound 188, 4-{2-[p-(difluoromethyl)phenyl]-2-(4-imidazolyl)ethyl}-2-methoxypyrimidine]: the concentration for a half-maximal effect (EC50) is more than 500 nM.

Turning to `COc1nccc(CC(c2c[nH]cn2)c2cccc3c2ccn3C)n1` (stereo not drawn) [Compound 193, 4-[2-(4-imidazolyl)-2-(1-methyl-4-indolyl)ethyl]-2-methoxypyrimidine], the concentration for a half-maximal effect (EC50) is less than 10 nM.

Regarding `COc1nccc(CC(c2c[nH]cn2)c2cccc3c2cnn3C)n1` (stereo not drawn) [Compound 194, 4-[1-(4-imidazolyl)-2-(2-methoxy-4-pyrimidinyl)ethyl]-1-methyl-1H-indazole], the EC50 is 10 to 50 nM.

Consider `COc1nccc(CC(c2c[nH]cn2)c2cccc(Cl)c2C#N)n1` (stereo not drawn) [Compound 196, 6-chloro-2-[1-(4-imidazolyl)-2-(2-methoxy-4-pyrimidinyl)ethyl] benzonitrile], for which the EC50 lay within 50 to 500 nM.

As for `COc1nccc(CC(c2c[nH]cn2)c2cccc(Cl)c2OC)n1` (stereo not drawn) [Compound 198, 4-[2-(3-chloro-2-methoxyphenyl)-2-(4-imidazolyl)ethyl]-2-methoxypyrimidine], the 50% effective concentration (EC50) fell in the range of 10 to 50 nM.

Consider `COc1nccc(CC(c2ccc(C(F)(F)F)cc2)c2c[nH]cn2)n1` (stereo not drawn) [Compound 199, 4-{2-(4-imidazolyl)-2-[p-(trifluoromethyl)phenyl]ethyl}-2-methoxypyrimidine], for which the EC50 was more than 500 nM.

As to `COc1nccc(CC(c2c[nH]cn2)c2cccc(Cl)c2Cl)n1` (stereo not drawn) [Compound 200, 4-[2-(2,3-dichlorophenyl)-2-(4-imidazolyl)ethyl]-2-methoxypyrimidine], the EC50 was less than 10 nM.

For the compound `FC(F)(F)c1ccc(C(Cc2cccnn2)c2c[nH]cn2)c(Cl)c1` (stereo not drawn) [Compound 201, 3-{2-[2-chloro-4-(trifluoromethyl)phenyl]-2-(4-imidazolyl)ethyl} pyridazine], the 50% effective concentration (EC50) is more than 500 nM.

As for `COc1nccc(CC(c2ccc(OC(F)(F)F)cc2)c2c[nH]cn2)n1` (stereo not drawn) [Compound 203, 4-[2-(4-imidazolyl)-2 (p-trifluoromethoxyphenyl)ethyl]-2-methoxypyrimidine], the concentration for a half-maximal effect (EC50) was more than 500 nM.

As for `COc1cc(OC(F)(F)F)cc(C(Cc2ccnc(OC)n2)c2c[nH]cn2)c1` (stereo not drawn) [Compound 204, 4-[2-(4-imidazolyl)-2-(3-methoxy-5-trifluoromethoxyphenyl)ethyl]-2-methoxypyrimidine], the EC50 was more than 500 nM.
